Source: patent publication US11352350B2, “IRAK degraders and uses thereof” (Kymera Therapeutics, Inc., priority 2018, dated 2022)
Like-named read-outs stand apart in the source and are kept apart here.

How the values were obtained:
IRAK4 = IRAK4 (Homo sapiens (Human), UniProt Q9NWZ3); assay: IRAK4 MSD degradation in OCI-LY10; assay type: cell-based
How it was run: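 OCI-LY10 cells treated with 8-point 1:3 dilutions (top 1 to 10 μM final) for 4 to 24 h at 37° C. Lysate IRAK4 measured by MSD sandwich immunoassay (2H9 capture, Y279 detection, SULFO-TAG anti-rabbit). DC50 from three-parameter logistic fit.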

OCI-LY10 = assay: CTG Cell Viability Assay - OCI-LY10; assay type: cell-based, human; conditions: OCI-LY10, 4 days, read-out: CTG Cell Viability Assay - OCI-LY10: Average external-IC50
How it was run: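 OCI-LY10 cells exposed to 9-dose, 1:3 dilutions from 10 μM top (0.2% DMSO) for 4 days at 37° C, 5% CO2. Viability by CellTiter-Glo luminescence; IC50 from three-parameter logistic fit.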

[1] = OCI-LY10, 4 hrs, read-out: IRAK4 MSD degradation in OCI-LY10 at 4 hrs: DC50
[2] = OCI-LY10, 24 hrs, read-out: IRAK4 MSD degradation in OCI-LY10 at 24 hrs: DC50
[3] = OCI-LY10, 4 hrs, MSD, read-out: IRAK4 MSD degradation in OCI-LY10 at 4 hrs: Average external-Abs DC50
[4] = OCI-LY10, 24 hrs, MSD, read-out: IRAK4 MSD degradation in OCI-LY10 at 24 hrs: Average external-Abs DC50

Chain of IRAK4 (Q9NWZ3 whole entry): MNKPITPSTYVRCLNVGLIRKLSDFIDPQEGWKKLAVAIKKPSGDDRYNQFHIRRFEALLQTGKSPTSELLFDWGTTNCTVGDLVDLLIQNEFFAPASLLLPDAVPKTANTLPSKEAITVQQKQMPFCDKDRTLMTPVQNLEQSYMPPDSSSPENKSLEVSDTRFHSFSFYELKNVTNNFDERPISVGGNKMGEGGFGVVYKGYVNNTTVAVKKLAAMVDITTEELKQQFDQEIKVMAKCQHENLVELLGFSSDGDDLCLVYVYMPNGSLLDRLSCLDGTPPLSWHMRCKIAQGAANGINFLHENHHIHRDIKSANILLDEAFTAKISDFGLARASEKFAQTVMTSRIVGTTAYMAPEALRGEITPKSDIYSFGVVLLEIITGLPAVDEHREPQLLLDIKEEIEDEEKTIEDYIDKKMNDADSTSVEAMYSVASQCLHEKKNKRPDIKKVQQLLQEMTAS

SMILES | DC50 (IRAK4; [1]) | DC50 (IRAK4; [2]) | IC50 (OCI-LY10; Homo sapiens, OCI-Ly10, 96 h) | DC50 (IRAK4; [3]) | DC50 (IRAK4; [4]) | IC50 (OCI-LY10)
CN1C(=O)CCC(N2C(=O)c3cccc(NCCCOCCCS(=O)(=O)N(C)C(=O)[C@H]4CC[C@H](n5cc(NC(=O)c6cnn7ccc(N8C[C@H]9C[C@@H]8CO9)nc67)c(C(F)F)n5)CC4)c3C2=O)C1=O (stereo in doubt) [I-490, N-[3-(difluoromethyl)-1-[4-[methyl-[3-[3-[[2-(1-methyl-2,6-dioxo-3-piperidyl)-1,3-dioxo-isoindolin-4-yl]amino]propoxy]propylsulfonyl]carbamoyl]cyclohexyl]pyrazol-4-yl]-5-(2-oxa-5-azabicyclo [2.2.1]heptan-5-yl)pyrazolo [1,5-a]pyrimidine-3-carboxamide] | 0.1 to 1 µM | > 1 µM | > 1 µM |  |  | 
O=C1CCC(N2C(=O)c3cccc(NC[C@H]4CC[C@H](OC5CCN(C[C@H]6CC[C@H](n7cc(NC(=O)c8cnn9ccc(N%10CCOCC%10)nc89)c(C(F)F)n7)CC6)CC5)CC4)c3C2=O)C(=O)N1 (stereo partly drawn) [I-473] | 0.01 to 0.1 µM | < 0.01 µM | < 0.05 µM |  |  | 
Cn1c(=O)n(C2CCC(=O)NC2=O)c2cccc(CN3CCC(CN4CCC(n5cc(NC(=O)c6coc(-c7ccnc(NCC8CC8)c7)n6)c(C(F)F)n5)CC4)CC3)c21 (stereo not drawn) [I-265] |  |  | < 0.05 µM | 0.01 to 0.1 µM |  | 
CN1C(=O)C(C2CCC(=O)NC2=O)c2cccc(CCCOC3CCN(C[C@H]4CC[C@H](n5cc(NC(=O)c6cnn7ccc(N8CC[C@H](O)C8)nc67)c(C(F)F)n5)CC4)CC3)c21 (stereo partly drawn) [I-282] |  |  | > 1 µM | < 0.01 µM |  | 
NC[C@H]1CC[C@H](n2cc(NC(=O)c3coc(-c4ccnc(NCC5CC5)c4)n3)c(C(F)F)n2)CC1 [I-312, N-[1-[4-(aminomethyl)cyclohexyl]-3-(difluoromethyl)pyrazol-4-yl]-2-[2-(cyclopropylmethylamino)-4-pyridyl]oxazole-4-carboxamide] |  |  | > 1 µM | > 1 µM | > 1 µM | 
O=C1CCC(n2c3ccccc3c3c(CCCOC4CCN(C[C@H]5CC[C@H](n6cc(NC(=O)c7cnn8ccc(N9CCOCC9)nc78)c(C(F)F)n6)CC5)CC4)ccnc32)C(=O)N1 (stereo partly drawn) [I-192] |  |  | > 1 µM | 0.01 to 0.1 µM |  | 
NC(=O)c1nn([C@H]2CC[C@@H](C(=O)NCCOCCOCCNc3cccc4c3C(=O)N(C3CCC(=O)NC3=O)C4=O)CC2)cc1NC(=O)c1coc(-c2ccnc(NCC(F)(F)F)c2)n1 (single isomer, unassigned) [I-14, N-(3-carbamoyl-1-((1s,4s)-4-((2-(2-(2-((2-(2,6-dioxopiperidin-3-yl)-1,3-dioxoisoindolin-4-yl)amino)ethoxy)ethoxy)ethyl)carbamoyl)cyclohexyl)-1H-pyrazol-4-yl)-2-(2-((2,2,2-trifluoroethyl)amino)pyridin-4-yl)oxazole-4-carboxamide] |  |  | 0.1 to 0.5 µM | 0.01 to 0.1 µM |  | 
O=C1CCC(N2Cc3c(OC4CC5(CCN(C[C@H]6CC[C@H](n7cc(NC(=O)c8cnn9ccc(N%10C[C@H]%11C[C@@H]%10CO%11)nc89)c(C(F)F)n7)CC6)CC5)C4)cccc3C2=O)C(=O)N1 (stereo partly drawn) [I-328] |  |  | < 0.05 µM | 0.01 to 0.1 µM | < 0.01 µM | 
CN(CCCOCCCNc1cccc2c1C(=O)N(C1CCC(=O)NC1=O)C2=O)Cc1ccc(-n2cc(NC(=O)c3coc(-c4ccnc(NCC5CC5)c4)n3)c(C(F)F)n2)cc1 (stereo not drawn) [I-392] |  |  | 0.1 to 0.5 µM | 0.1 to 1 µM | 0.01 to 0.1 µM | 
O=C1CCC(N2C(=O)c3cccc(OCCCOC4CCN(C[C@H]5CC[C@H](n6cc(NC(=O)c7cnn8ccc(N9CCOCC9)nc78)c(C(F)F)n6)CC5)CC4)c3C2=O)C(=O)N1 (stereo partly drawn) [I-209] |  |  | > 1 µM | 0.01 to 0.1 µM | < 0.01 µM | 
CN1C(=O)C(C2CCC(=O)NC2=O)c2cccc(CCCOC3CCN(C[C@H]4CC[C@H](n5cc(NC(=O)c6cnn7ccc(N8CCC(C)(O)CC8)nc67)c(C(F)F)n5)CC4)CC3)c21 (stereo partly drawn) [I-286] |  |  | > 1 µM | 0.01 to 0.1 µM |  | 
CN(C[C@@H]1CN(CCCCc2cccc3c2C(=O)N(C2CCC(=O)NC2=O)C3=O)CCO1)C[C@H]1CC[C@H](n2cc(NC(=O)c3coc(-c4ccnc(NCC5CC5)c4)n3)c(C(F)F)n2)CC1 (stereo partly drawn) [I-343] |  |  |  | 0.01 to 0.1 µM |  | < 0.05 µM
CN(CCCOCCCNc1cccc2c1C(=O)N(C1CCC(=O)NC1=O)C2=O)C[C@H]1CC[C@H](n2cc(N(C)C(=O)c3coc(-c4ccnc(NCC5CC5)c4)n3)c(C(F)F)n2)CC1 (stereo partly drawn) [I-401] |  |  | 0.5 to 1 µM | 0.1 to 1 µM | > 1 µM | 
Cn1c(=O)n(C2CCC(=O)NC2=O)c2ccc(CCCCCCC(=O)N3CCN([C@H]4CC[C@H](Nc5ncnc6[nH]cc(C7CCOCC7)c56)CC4)CC3)cc21 (stereo partly drawn) [I-22] |  |  | 0.1 to 0.5 µM | > 1 µM | > 1 µM | 
CN(CCc1ccc(CNc2cccc3c2C(=O)N(C2CCC(=O)N(C)C2=O)C3=O)cc1)C[C@H]1CC[C@H](n2cc(NC(=O)c3cnn4ccc(N5C[C@H]6CC5CO6)nc34)c(C(F)F)n2)CC1 (stereo partly drawn) [I-452] | 0.1 to 1 µM | > 1 µM | > 1 µM |  |  | 
